Columns and labels:
H2 histamine receptors = target: T1, H2 histamine receptors (Cavia porcellus, UniProt P47747); assay: guinea pig heart atrium test (histamine-induced positive chronotropic response in spontaneously beating right atrium); assay type: cell-based; settings: 32° C., pH 7.4, 30 minutes after addition of compound, vs histamine dose-response
T1 construct: from tissue; host or cells: guinea pig right atrium (isolated, spontaneously beating)
Experimental: The guinea pig heart atrium test is carried out as follows:
The tissue is allowed to stabilize over 1 hour. Individual contractions are recorded with a force-displacement transducer through a strain gauge coupler. A control dose-response curve to histamine in the above described tissue bath is obtained after which the tissue is washed 3 times and allowed to re-equilibrate to basal rate. The test compound is added to the tissue bath at the desired final concentration. Thirty minutes after addition of the compound, a fresh histamine dose response curve is again obtained. Then the response to histamine in the presence of antagonist is compared to the histamine control response. This procedure is repeated, using fresh tissues, for each concentration of antagonist tested.

rat gastric secretion = assay: gastric secretion in the pylorus-ligated rat (modified Shay procedure); assay type: in vivo; settings: 32 mg/kg, interduodenally (i.d.), four hours after ligation, male Charles River rats
Experimental: The procedures for the results of these tests are presented at the end of the following examples, which will serve to illustrate the present invention.
The procedure for testing gastric secretion in the rat, a modification of the procedure of Shay et al., Gastroenterology, 26, 906-13 (1954) is carried out as follows:
Male Charles River rats weighing 200-300 grams are deprived of food but not water for 24 hours prior to use. Water is, however, withheld during the experiment. The rats are weighed, anesthetized, and the pylorus ligated according to the method of Shay et al. Treatment or vehicle control is then administered interduodenally (i.d.). Rats are housed 2/cage and sacrificed with CO2 four hours after ligation. The stomachs are removed, rinsed, and contents emptied into a graduated centrifuge tube. The tubes are centrifuged for 20 minutes at 2,000 RPM and the volume of gastric juice recorded. Any samples obviously contamined by feces, food or hemolysis are eliminated. An aliquot of each is frozen for later analysis of Na^+, K^+ and Cl^- concentration. The pH is measured and 1 ml. of gastric juice is titrated with 0.1 N NaOH to a pH of 7.0-7.4 Titratable acid output is calculated in microequivalents and the percent inhibition of acid output is calculated as follows: [formula]

[1] = cited from earlier work

T1 sequence (P47747 whole entry): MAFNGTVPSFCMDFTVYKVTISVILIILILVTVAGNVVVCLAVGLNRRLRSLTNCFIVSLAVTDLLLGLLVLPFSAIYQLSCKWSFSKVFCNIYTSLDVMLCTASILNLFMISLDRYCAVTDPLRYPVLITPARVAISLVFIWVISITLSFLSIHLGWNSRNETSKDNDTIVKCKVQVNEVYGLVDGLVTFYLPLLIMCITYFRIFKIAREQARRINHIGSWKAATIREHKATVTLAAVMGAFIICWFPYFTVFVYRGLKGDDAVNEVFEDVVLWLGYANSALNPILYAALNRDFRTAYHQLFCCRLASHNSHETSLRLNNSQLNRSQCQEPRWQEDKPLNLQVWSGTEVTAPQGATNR

pA2 Value (apparent dissociation constant of the H2 antagonist) (H2 histamine receptors) | SMILES | % Inhibition (of acid output) (rat gastric secretion) [%] | confusional states (in words) ([1]; elderly patients) | anti-androgenic activity (in words) ([1]; patients) | duration of action (in words) ([1]; patients)
7.1 | c1cc(CN2CCCCC2)cc(OCCCNc2nc3ccccc3[nH]2)c1 [A, 2-[3-[3-[(1-piperidinylmethyl)]phenoxy]propylamine]benzimidazole] | 65 |  |  | 
 | CN/C(=N/CCSCc1nc[nH]c1C)NC#N [Cimetidine] |  | a tendency to cause confusional states in elderly patients | anti-androgenic activity | short duration of action
